# Reference: patent publication US20240271082A1, “[…]-MODIFIED SAC[…] STRAINS AS PR[…] […] AGENTS” (Fzata, Inc., priority 2021, published 2024)
# Columns and labels:
# S. boulardii (Sb) = assay: Methotrexate effective dose in S. boulardii; type: cell-based; conditions: MTX alone, up to 500 nM, 24 hour reading
# Description: Cells were seeded at OD=0.2, 24 hour reading.
# hTNF-α = hTNF-α (Homo sapiens, UniProt P01375); assay: Neutralization of human TNF-α cytotoxicity on L929 cells; conditions: read-out: IC50, block hTNF-α-induced cytotoxicity
# Description: After 24h incubation, the antibody-mediated inhibitions of cytotoxicity were measured.
# [1] = system: patients with COVID-19 pneumonia and systemic hyperinflammation; conditions: human, in vivo; cited from earlier work
# Crohn's disease = conditions: systemic administration; cited from earlier work
# hTNF-α, sequence (P01375 77-233 limits assumed): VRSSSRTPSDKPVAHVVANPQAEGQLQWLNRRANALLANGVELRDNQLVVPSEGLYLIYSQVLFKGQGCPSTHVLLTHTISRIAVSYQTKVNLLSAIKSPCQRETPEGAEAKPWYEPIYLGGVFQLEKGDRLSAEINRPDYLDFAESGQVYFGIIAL
compound,measurement,setting,value
"CN(Cc1cnc2nc(N)nc(N)c2n1)c1ccc(C(=O)N[C@@H](CCC(=O)O)C(=O)O)cc1 [MTX, methotrexate]",growth inhibition of S. boulardii,S. boulardii (Sb),not enough to cause an effect on growth inhibition
Adalimumab [Humira],IC50,hTNF-α,0.028 nM
Mavrilimumab: investigational fully-human monoclonal antibody that targets GM-CSF receptor alpha,proportion of patients alive and off oxygen therapy at day 14,[1],"hyperinflammation. Unfortunately, there was no significant difference"
infliximab: anti-TNF monoclonal antibody,clinical response in Crohn's disease,Crohn's disease,drastic clinical improvement
